# Source: PubChem BioAssay (NCI)
# Several values for one entry are separate records, joined by “and”; a condition that tells them apart may be missing. Equal values may be shown once.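 Assay format: 96-well plates, 48-hour exposure. The concentration for 50% growth inhibition is given as GI50. At the TGI there is no net growth.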
# Legend:
# Experiment in all cases: NCI-60 cell line screen, 48 h
# [1] = system: 786-0 renal
# [2] = system: A498 renal
# [3] = system: A549 NSCLC
# [4] = system: ACHN renal
# [5] = system: BT-549 breast
# [6] = system: CAKI-1 renal
# [7] = system: CCRF-CEM leukemia
# [8] = system: COLO 205 colon
# [9] = system: DU-145 prostate
# [10] = system: EKVX NSCLC
# [11] = system: HCC-2998 colon
# [12] = system: HCT-116 colon
# [13] = system: HCT-15 colon
# [14] = system: HOP-62 NSCLC
# [15] = system: HOP-92 NSCLC
# [16] = system: HS 578T breast
# [17] = system: IGROV1 ovarian
# [18] = system: K-562 leukemia
# [19] = system: KM12 colon
# [20] = system: LOX IMVI melanoma
# [21] = system: M14 melanoma
# [22] = system: MALME-3M melanoma
# [23] = system: MDA-MB-231 breast
# [24] = system: MDA-MB-435
# [25] = system: MDA-MB-468 breast
# [26] = system: MOLT-4 leukemia
# [27] = system: NCI-H226 lung
# [28] = system: NCI-H23 lung
# [29] = system: NCI-H460 lung
# [30] = system: NCI-H522 lung
# [31] = system: NCI/ADR-RES ovarian
# [32] = system: OVCAR-3 ovarian
# [33] = system: OVCAR-4 ovarian
# [34] = system: OVCAR-5 ovarian
# [35] = system: OVCAR-8 ovarian
# [36] = system: RPMI-8226 leukemia
# [37] = system: RXF 393 renal
# [38] = system: SF-268 CNS
# [39] = system: SF-295 CNS
# [40] = system: SF-539 CNS
# [41] = system: SK-MEL-2 melanoma
# [42] = system: SK-MEL-28 melanoma
# [43] = system: SK-MEL-5 melanoma
# [44] = system: SK-OV-3 ovarian
# [45] = system: SN12C renal
# [46] = system: SNB-19 CNS
# [47] = system: SNB-75 CNS
# [48] = system: SW-620 colon
# [49] = system: TK-10 renal
# [50] = system: U251 CNS
# [51] = system: UACC-257 melanoma
# [52] = system: UACC-62 melanoma
# [53] = system: HL-60(TB) leukemia
# [54] = system: MCF7 breast
# [55] = system: PC-3 prostate
# [56] = system: SR leukemia
# [57] = system: T-47D breast
# [58] = system: UO-31 renal
smiles,measurement,setting,value
Cc1cccc(-c2nc(Nc3cccc(S(N)(=O)=O)c3)c3ccccc3n2)c1,GI50,[1],8530 nM
same,TGI,[1],> 100000 nM
same,GI50,[2],> 100000 nM
same,TGI,[2],> 100000 nM
same,GI50,[3],10900 nM
same,TGI,[3],> 100000 nM
same,GI50,[4],7930 nM
same,TGI,[4],> 100000 nM
same,GI50,[5],> 100000 nM
same,TGI,[5],> 100000 nM
same,GI50,[6],13800 nM
same,TGI,[6],> 100000 nM
same,GI50,[7],4770 nM
same,TGI,[7],> 100000 nM
same,GI50,[8],> 100000 nM
same,TGI,[8],> 100000 nM
same,GI50,[9],> 100000 nM
same,TGI,[9],> 100000 nM
same,GI50,[10],> 100000 nM
same,TGI,[10],> 100000 nM
same,GI50,[11],4980 nM
same,TGI,[11],> 100000 nM
same,GI50,[12],8090 nM
same,TGI,[12],> 100000 nM
same,GI50,[13],3530 nM
same,TGI,[13],> 100000 nM
same,GI50,[14],> 100000 nM
same,TGI,[14],> 100000 nM
same,GI50,[15],34900 nM
same,TGI,[15],> 100000 nM
same,GI50,[16],> 100000 nM
same,TGI,[16],> 100000 nM
same,GI50,[17],> 100000 nM
same,TGI,[17],> 100000 nM
same,GI50,[18],3230 nM
same,TGI,[18],> 100000 nM
same,GI50,[19],3620 nM
same,TGI,[19],> 100000 nM
same,GI50,[20],4760 nM
same,TGI,[20],> 100000 nM
same,GI50,[21],> 100000 nM
same,TGI,[21],> 100000 nM
same,GI50,[22],> 100000 nM
same,TGI,[22],> 100000 nM
same,GI50,[23],6520 nM
same,TGI,[23],> 100000 nM
same,GI50,[24],> 100000 nM
same,TGI,[24],> 100000 nM
same,GI50,[25],5570 nM
same,TGI,[25],> 100000 nM
same,GI50,[26],4100 nM
same,TGI,[26],> 100000 nM
same,GI50,[27],> 100000 nM
same,TGI,[27],> 100000 nM
same,GI50,[28],30600 nM
same,TGI,[28],> 100000 nM
same,GI50,[29],7200 nM
same,TGI,[29],43000 nM
same,GI50,[30],5690 nM
same,TGI,[30],> 100000 nM
same,GI50,[31],7080 nM
same,TGI,[31],> 100000 nM
same,GI50,[32],9420 nM
same,TGI,[32],> 100000 nM
same,GI50,[33],> 100000 nM
same,TGI,[33],> 100000 nM
same,GI50,[34],> 100000 nM
same,TGI,[34],> 100000 nM
same,GI50,[35],9820 nM
same,TGI,[35],> 100000 nM
same,GI50,[36],7660 nM
same,TGI,[36],> 100000 nM
same,GI50,[37],6230 nM
same,TGI,[37],> 100000 nM
same,GI50,[38],> 100000 nM
same,TGI,[38],> 100000 nM
same,GI50,[39],4430 nM
same,TGI,[39],> 100000 nM
same,GI50,[40],6200 nM
same,TGI,[40],25100 nM
same,GI50,[41],> 100000 nM
same,TGI,[41],> 100000 nM
same,GI50,[42],> 100000 nM
same,TGI,[42],> 100000 nM
same,GI50,[43],> 100000 nM
same,TGI,[43],> 100000 nM
same,GI50,[44],> 100000 nM
same,TGI,[44],> 100000 nM
same,GI50,[45],> 100000 nM
same,TGI,[45],> 100000 nM
same,GI50,[46],> 100000 nM
same,TGI,[46],> 100000 nM
same,GI50,[47],> 100000 nM
same,TGI,[47],> 100000 nM
same,GI50,[48],17400 nM
same,TGI,[48],> 100000 nM
same,GI50,[49],> 100000 nM
same,TGI,[49],> 100000 nM
same,GI50,[50],11600 nM
same,TGI,[50],> 100000 nM
same,GI50,[51],> 100000 nM
same,TGI,[51],> 100000 nM
same,GI50,[52],> 100000 nM
same,TGI,[52],> 100000 nM
CC(C)C[C@H](NC(=O)[C@@H]1CCCCCCCCCCC(=O)N[C@@H](CC(=O)N2CCC[C@@H]2C2CCCC2)C(=O)N1)B(O)O,GI50,[1],24.9 nM and 21.8 nM
same,TGI,[1],173 nM and 168 nM
same,GI50,[2],21.6 nM and 34.4 nM
same,TGI,[2],98.2 nM and 180 nM
same,GI50,[3],7.11 nM
same,TGI,[3],4570 nM
same,GI50,[4],58.5 nM and 25.9 nM
same,TGI,[4],5940 nM
same,GI50,[5],1.4 nM
same,TGI,[5],3.05 nM
same,GI50,[6],108 nM and 52.6 nM
same,TGI,[6],3350 nM
same,GI50,[7],2.87 nM
same,GI50,[8],4.5 nM
same,TGI,[8],20.2 nM and 18 nM
same,GI50,[9],8.46 nM
same,TGI,[9],37000 nM
same,GI50,[10],9.25 nM and 21.7 nM
same,GI50,[11],1.83 nM
same,TGI,[11],3.32 nM
same,GI50,[12],2.6 nM
same,GI50,[13],119 nM and 224 nM
same,TGI,[13],356 nM and 2460 nM
same,GI50,[53],3.2 nM
same,TGI,[53],1940 nM
same,GI50,[14],5.68 nM
same,TGI,[14],23 nM
same,GI50,[15],2.23 nM
same,TGI,[15],6.22 nM
same,GI50,[16],4.22 nM
same,TGI,[16],94 nM
same,GI50,[17],4.08 nM
same,GI50,[18],4.56 nM
same,TGI,[18],> 100000 nM
same,GI50,[20],1.75 nM
same,TGI,[20],3.46 nM
same,GI50,[21],5.5 nM
same,TGI,[21],75.4 nM and 109 nM
same,GI50,[22],1.64 nM
same,TGI,[22],3.71 nM and 23.8 nM
same,GI50,[54],3.7 nM
same,GI50,[23],1.87 nM
same,TGI,[23],3.81 nM
same,GI50,[24],2.57 nM
same,TGI,[24],6.73 nM
same,GI50,[25],2.02 nM
same,TGI,[25],4.4 nM
same,GI50,[26],3.4 nM
same,TGI,[26],8480 nM
same,GI50,[27],3.97 nM
same,TGI,[27],17.2 nM
same,GI50,[28],2.15 nM
same,TGI,[28],5.11 nM
same,GI50,[29],8.62 nM
same,TGI,[29],43.6 nM and 40.5 nM
same,GI50,[30],2.21 nM
same,TGI,[30],5.66 nM
same,GI50,[31],1970 nM
same,TGI,[31],5900 nM
same,GI50,[32],4.07 nM
same,TGI,[32],16.8 nM
same,GI50,[33],3.65 nM
same,TGI,[33],16.9 nM
same,GI50,[34],2.89 nM
same,TGI,[34],11.9 nM
same,GI50,[35],22.2 nM and 15.7 nM
same,TGI,[35],10200 nM
same,GI50,[55],4.61 nM
same,TGI,[55],96.4 nM and 59.3 nM
same,GI50,[36],3.72 nM
same,GI50,[37],2.53 nM
same,TGI,[37],6.28 nM
same,GI50,[38],4.46 nM
same,TGI,[38],46.6 nM
same,GI50,[39],3.83 nM
same,TGI,[39],14.5 nM
same,GI50,[40],1.8 nM
same,TGI,[40],3.47 nM
same,GI50,[43],1.77 nM
same,TGI,[43],4.27 nM
same,GI50,[44],4.43 nM
same,TGI,[44],23.6 nM and 15.9 nM
same,GI50,[45],2.15 nM
same,TGI,[45],5.04 nM and 11.3 nM
same,GI50,[46],3.67 nM
same,GI50,[56],3.81 nM
same,TGI,[56],> 100000 nM
same,GI50,[48],4.09 nM
same,TGI,[48],42 nM and 25.4 nM
same,GI50,[57],1.99 nM
same,TGI,[57],5.29 nM
same,GI50,[49],41 nM and 37.3 nM
same,TGI,[49],208 nM and 462 nM
same,GI50,[50],3.92 nM
same,TGI,[50],17.8 nM and 72.9 nM
same,GI50,[51],3.76 nM
same,TGI,[51],289 nM and 1200 nM
same,GI50,[52],1.77 nM
same,TGI,[52],3.56 nM
same,GI50,[58],171 nM and 317 nM
same,TGI,[58],466 nM and 1800 nM
